Source: patent US8008506B2, “Indazole compounds” (priority 2008, dated 2011)
Values after ≈ are worked out from the molar mass of the structure shown.

Key:
[1] = Test Example 11: solubility in hydrochloric acid buffer solution at pH 1.2; type: physicochemical; settings: simulated gastric fluid, thermodynamic from solid; hydrochloric acid buffer solution at pH 1.2, 37° C., one hour, 1 mg/mL nominal
Method: Test on Solubility in Hydrochloric Acid Buffer Solution at pH 1.2
(§1) A test compound is precisely weighed to 500 μg, and a hydrochloric acid buffer solution at pH 1.2 is added thereto to a concentration of 1 mg/mL. The solution is shaken at 37° C. for one hour. After the shaking, the entire amount of the solution is transferred into a filter tube, and the solution is filtered by centrifugation. The filtrate is analyzed by HPLC, and the solubility of the test compound is determined by dividing the peak area value of the filtrate by the peak area value of the standard solution.
The standard solution is prepared by precisely weighing 500 μg of the test compound, and dissolving the test compound in DMSO to a concentration of 1 mg/mL.
(§2) YMC-Pack C18 (4.6 mm×150 mm) (manufactured by YMC Co., Ltd.) is used as a separating column. The detection is performed with UV-254 nm. Elution is carried out at a flow rate of 1 ml/min, using solution A=water [containing 0.1% (v/v) acetic acid] and solution B=acetonitrile as the solvents, under the conditions in which a linear gradient of the solution B is run from 5 to 98% (v/v) from zero minute to 20 minute, subsequently solution B is eluted at 98% up to 25 minute, and the solution B is eluted at 5% from 25.01 minute to 15 minute.

[2] = Test Example 12: solubility in physiological saline; type: physicochemical; settings: saline or isotonic, thermodynamic from solid, 37° C., one hour, 1 mg/mL nominal
Method: as §1
Test on Solubility in Physiological Saline
The solubility of a test compound is determined by performing the same test as that performed in Test Example 11, except that the hydrochloric acid buffer solution at pH 1.2 is changed to physiological saline.

[3] = Test Example 13: stability in pure water; type: physicochemical
Method: Test on Stability in Pure Water
(§3) A test compound is prepared in pure water to be in the saturated state. This solution is shaken for one hour at room temperature. After the shaking, the entire amount of the solution is transferred into a filter tube, and the solution is filtered by centrifugation. The filtrate is analyzed by HPLC immediately after filtration, 24 hours after filtration, and 48 hours after filtration. The stability of the test compound is determined using a calibration curve, based on the peak area value.
A standard solution is prepared by precisely weighing each test compound, and preparing a solution that sufficiently dissolves in pure water. The calibration curve is produced by assigning the concentration of the standard solution to the horizontal axis, and assigning the HPLC area peak at the concentration to the vertical axis.
as §2, with “nm. The temperature in the column is set at 40° C.” for “nm.”, “to 35” for “to 15”

[4] = Test Example 14: stability in phosphate buffer solution at pH 6.8; type: physicochemical
Method: as §3
Test on Stability in Phosphate Buffer Solution at pH 6.8
The stability of a test compound is determined by performing the same test as that performed in Test Example 13, except that the pure water is changed to a phosphate buffer solution at pH 6.8.

[5] = molecular target: T1, human β1 adrenergic receptor (Homo sapiens, UniProt P08588); assay: Test Example 2-A: human β1 adrenergic receptor agonist activity (method of Test Example 1-A); type: cell-based; settings: Table 1; for β1 receptor EC50: Test Example 2-A; for β1 receptor I.A.: maximum response to isoproterenol taken as 100%
T1 construct: expressed in transfected cells; host or cells: CHO (Chinese Hamster Ovary) cells, pcDNA3
T1 sequence (P08588 whole entry): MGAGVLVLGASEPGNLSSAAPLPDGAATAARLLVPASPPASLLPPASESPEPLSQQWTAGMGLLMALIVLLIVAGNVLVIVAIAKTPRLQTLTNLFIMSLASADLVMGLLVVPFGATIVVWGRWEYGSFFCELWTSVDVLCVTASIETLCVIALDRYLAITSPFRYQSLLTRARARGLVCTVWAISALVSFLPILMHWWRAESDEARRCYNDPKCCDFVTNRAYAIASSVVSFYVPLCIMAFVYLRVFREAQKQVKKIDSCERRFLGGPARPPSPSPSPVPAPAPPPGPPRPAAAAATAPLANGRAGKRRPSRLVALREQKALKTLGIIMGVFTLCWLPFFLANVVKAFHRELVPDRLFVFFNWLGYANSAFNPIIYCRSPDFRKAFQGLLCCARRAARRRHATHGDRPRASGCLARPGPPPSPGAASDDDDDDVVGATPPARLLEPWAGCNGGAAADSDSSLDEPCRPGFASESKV
Method: (§4) The measurement of human β3 adrenergic receptor agonist activity is carried out using CHO (Chinese Hamster Ovary) cells transfected with pcDNA3 (manufactured by Invitrogen, Inc.) to which human β3 gene has been inserted. […] This human β3 cDNA fragment is used as a probe, and the full length human β3 gene is obtained from a human genomic library (manufactured by Clontech Laboratories, Inc.). The above cells are cultured in Ham's F-12 medium containing 10% fetal bovine serum and 400 μg/ml geneticin (manufactured by Invitrogen, Inc.). These cells are seeded on a 24-well plate to a concentration of 1×10^5 cells/well, and after being cultured for about 20 hours, the cells are left to stand in serum-free Ham's F-12 medium for 2 hours. A test compound is initially dissolved in DMSO, and then is diluted stepwise with Ham's F-12 containing 20 mmol/L HEPES, 1 mmol/L isobutylmethylxanthine, and 1 mmol/L ascorbic acid. The dilution is added to the cells. After the cells are cultured for 30 minutes, and then the medium is removed, followed by addition of 0.1 ml of 1 N NaOH to the cells. The cells are left to stand for 20 minutes, and then are added with 0.1 ml of 1 N acetic acid and are stirred. The resulting cell lysate is centrifuged, and then is subjected to quantification of cAMP with cAMP EIA kit (manufactured by Cayman Chemical Co.). […] Measurement of Human β1 Adrenergic Receptor Agonist Activity

[6] = molecular target: T2, human β2 adrenergic receptor (Homo sapiens, UniProt P07550); assay: Test Example 3-A: human β2 adrenergic receptor agonist activity (method of Test Example 1-A); type: cell-based; settings: Table 1; for β2 receptor EC50: Test Example 3-A; for β2 receptor I.A.: maximum response to isoproterenol taken as 100%
T2 construct: expressed in transfected cells; host or cells: CHO (Chinese Hamster Ovary) cells, pcDNA3
T2 sequence (P07550 whole entry): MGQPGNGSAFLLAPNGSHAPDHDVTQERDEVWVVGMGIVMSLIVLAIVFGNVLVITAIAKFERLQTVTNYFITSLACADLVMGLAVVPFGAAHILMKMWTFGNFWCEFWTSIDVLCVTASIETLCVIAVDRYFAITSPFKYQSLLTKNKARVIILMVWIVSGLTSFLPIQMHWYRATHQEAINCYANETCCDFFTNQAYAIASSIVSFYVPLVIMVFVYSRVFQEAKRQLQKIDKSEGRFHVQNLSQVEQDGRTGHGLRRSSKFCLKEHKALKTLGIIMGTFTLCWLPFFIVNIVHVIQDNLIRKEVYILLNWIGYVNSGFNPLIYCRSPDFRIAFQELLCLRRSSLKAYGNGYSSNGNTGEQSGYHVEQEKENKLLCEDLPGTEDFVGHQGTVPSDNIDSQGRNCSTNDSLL
Method: [Worded in the source for another target; this target is reported under the same test.] as §4, with “β2” for “β1”

| Compound | solubility at 1 h [1] | solubility at 1 h [2] | HPLC area percent ([3]; after 24 hours) | HPLC area percent ([3]; after 48 hours) | HPLC area percent ([3]; immediately after filtration) | HPLC area percent ([4]; after 24 hours) | HPLC area percent ([4]; after 48 hours) | HPLC area percent ([4]; immediately after filtration) | β1 receptor EC50 [5] | β1 receptor I.A. [5] | β2 receptor EC50 [6] | β2 receptor I.A. [6] |
| --- | --- | --- | --- | --- | --- | --- | --- | --- | --- | --- | --- | --- |
| CS(=O)(=O)Nc1cccc([C@@H](O)CNCCOc2ccc3c(C(F)(F)F)n[nH]c3c2)c1 [Example 4, (R)-N-(3-(1-hydroxy-2-(2-(3-trifluoromethylindazol-6-yloxy)ethylamino)ethyl)phenyl)methanesulfonamide] | 963 µg/mL (≈ 2100 µM) | 932 µg/mL (≈ 2030 µM) | 98.7% | 98.6% | 98.7% | 99.6% | 99.6% | 99.6% |  |  |  |  |
| CCc1n[nH]c2cc(OCCNC[C@H](O)c3cccc(NS(C)(=O)=O)c3)ccc12 [Example 2, (R)-N-(3-(1-hydroxy-2-(2-(3-ethylindazol-6-yloxy)ethylamino)ethyl)phenyl)methanesulfonamide] | ≥ 1000 µg/mL | ≥ 1000 µg/mL | 98.2% | 98.2% | 98.2% | 98.2% | 98.2% | 98.2% | a) | 8.1% | a) | 3.0% |
| CN(C)C(=O)CCc1n[nH]c2cc(OCCNC[C@H](O)c3cccc(NS(C)(=O)=O)c3)ccc12 [Example 5, (R)-3-(6-(2-(2-hydroxy-2-(3-(methylsulfonamido)phenyl)ethylamino)ethoxy)-indazol-3-yl)-N,N-dimethylpropanamide] | ≥ 1000 µg/mL | ≥ 1000 µg/mL |  |  |  |  |  |  | a) | 3.3% | a) | 3.2% |

Now from value to molecule:

| solubility at 1 h [1] | solubility at 1 h [2] | HPLC area percent ([3]; after 24 hours) | HPLC area percent ([3]; after 48 hours) | HPLC area percent ([3]; immediately after filtration) | HPLC area percent ([4]; after 24 hours) | HPLC area percent ([4]; after 48 hours) | HPLC area percent ([4]; immediately after filtration) | β1 receptor EC50 [5] | β1 receptor I.A. [5] | β2 receptor EC50 [6] | β2 receptor I.A. [6] | Compound |
| --- | --- | --- | --- | --- | --- | --- | --- | --- | --- | --- | --- | --- |
| ≥ 1000 µg/mL | ≥ 1000 µg/mL | 99.8% | 99.8% | 100% | 99.9% | 100% | 99.8% |  |  |  |  | CC(C)c1n[nH]c2cc(OCCNC[C@H](O)c3cccc(NS(C)(=O)=O)c3)ccc12 [Example 1, (R)-N-(3-(1-hydroxy-2-(2-(3-isopropylindazol-6-yloxy)ethylamino)ethyl)phenyl)methanesulfonamide] |
| ≥ 1000 µg/mL | 993 µg/mL (≈ 2290 µM) |  |  |  |  |  |  | a) | 3.3% | a) | 7.6% | COCc1n[nH]c2cc(OCCNC[C@H](O)c3cccc(NS(C)(=O)=O)c3)ccc12 [Example 6, (R)-N-(3-(1-hydroxy-2-(2-(3-methoxymethylindazol-6-yloxy)ethylamino)ethyl)phenyl)methanesulfonamide] |
